Laboratory results from PubChem BioAssay (NCI).
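96-well plates; 48 h exposure; 5 concentrations. Endpoints by linear interpolation between flanking doses. Not reached: highest tested concentration assigned. TGI denotes the concentration required for complete inhibition of growth.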

Columns and labels:
Assay in all cases: NCI anticancer screen, dose series, 48 h
[1] = system: 786-0 renal
[2] = system: A498 renal
[3] = system: A549 NSCLC
[4] = system: ACHN renal
[5] = system: BT-549 breast
[6] = system: CAKI-1 renal
[7] = system: CCRF-CEM leukemia
[8] = system: COLO 205 colon
[9] = system: DU-145 prostate
[10] = system: EKVX NSCLC
[11] = system: HCC-2998 colon
[12] = system: HCT-116 colon
[13] = system: HCT-15 colon
[14] = system: HL-60(TB) leukemia
[15] = system: HOP-62 NSCLC
[16] = system: HOP-92 NSCLC
[17] = system: HT29 colon
[18] = system: IGROV1 ovarian
[19] = system: K-562 leukemia
[20] = system: KM12 colon
[21] = system: LOX IMVI melanoma
[22] = system: M14 melanoma
[23] = system: MALME-3M melanoma
[24] = system: MCF7 breast
[25] = system: MDA-MB-231 breast
[26] = system: MDA-MB-435
[27] = system: MDA-N
[28] = system: MOLT-4 leukemia
[29] = system: NCI-H226 lung
[30] = system: NCI-H23 lung
[31] = system: NCI/ADR-RES ovarian
[32] = system: OVCAR-3 ovarian
[33] = system: OVCAR-4 ovarian
[34] = system: OVCAR-5 ovarian
[35] = system: OVCAR-8 ovarian
[36] = system: PC-3 prostate
[37] = system: RPMI-8226 leukemia
[38] = system: RXF 393 renal
[39] = system: SF-268 CNS
[40] = system: SF-295 CNS
[41] = system: SF-539 CNS
[42] = system: SK-MEL-2 melanoma
[43] = system: SK-MEL-28 melanoma
[44] = system: SK-MEL-5 melanoma
[45] = system: SK-OV-3 ovarian
[46] = system: SN12C renal
[47] = system: SNB-75 CNS
[48] = system: SW-620 colon
[49] = system: T-47D breast
[50] = system: TK-10 renal
[51] = system: U251 CNS
[52] = system: UACC-257 melanoma
[53] = system: UACC-62 melanoma
[54] = system: NCI-H460 lung
[55] = system: NCI-H522 lung
[56] = system: SNB-19 CNS
[57] = system: UO-31 renal
[58] = system: HS 578T breast
[59] = system: SR leukemia

## N#CC(C#N)N=Cc1ccncc1
[1]
  TGI: > 100 µM
[2]
  TGI: > 100 µM
[3]
  TGI: > 100 µM
[4]
  TGI: > 100 µM
[5]
  TGI: > 100 µM
[6]
  TGI: > 100 µM
[7]
  TGI: > 100 µM
[8]
  TGI: > 100 µM
[9]
  TGI: > 100 µM
[10]
  TGI: > 100 µM
[11]
  TGI: > 100 µM
[12]
  TGI: > 100 µM
[13]
  TGI: > 100 µM
[14]
  TGI: > 100 µM
[15]
  TGI: > 100 µM
[16]
  TGI: > 100 µM
[17]
  TGI: > 100 µM
[18]
  TGI: > 100 µM
[19]
  TGI: > 100 µM
[20]
  TGI: > 100 µM
[21]
  TGI: > 100 µM
[22]
  TGI: > 100 µM
[23]
  TGI: > 100 µM
[24]
  TGI: > 100 µM
[25]
  TGI: > 100 µM
[26]
  TGI: > 100 µM
[27]
  TGI: > 100 µM
[28]
  TGI: > 100 µM
[29]
  TGI: > 100 µM
[30]
  TGI: > 100 µM
[31]
  TGI: > 100 µM
[32]
  TGI: > 100 µM
[33]
  TGI: > 100 µM
[34]
  TGI: > 100 µM
[35]
  TGI: > 100 µM
[36]
  TGI: > 100 µM
[37]
  TGI: > 100 µM
[38]
  TGI: > 100 µM
[39]
  TGI: > 100 µM
[40]
  TGI: > 100 µM
[41]
  TGI: > 100 µM
[42]
  TGI: > 100 µM
[43]
  TGI: > 100 µM
[44]
  TGI: > 100 µM
[45]
  TGI: > 100 µM
[46]
  TGI: > 100 µM
[47]
  TGI: > 100 µM
[48]
  TGI: > 100 µM
[49]
  TGI: > 100 µM
[50]
  TGI: > 100 µM
[51]
  TGI: > 100 µM
[52]
  TGI: > 100 µM
[53]
  TGI: > 100 µM

## CC(C)(C)O/C=C1/C(=O)OC2C[C@@H](O[Si](C)(C)C(C)(C)C)CC12 (stereo partly drawn)
[1]
  TGI: > 100 µM
[2]
  TGI: > 100 µM
[3]
  TGI: > 100 µM
[4]
  TGI: > 100 µM
[5]
  TGI: > 100 µM
[6]
  TGI: > 100 µM
[7]
  TGI: 88.4 µM
[8]
  TGI: > 100 µM
[9]
  TGI: > 100 µM
[10]
  TGI: > 100 µM
[11]
  TGI: > 100 µM
[12]
  TGI: > 100 µM
[13]
  TGI: > 100 µM
[15]
  TGI: > 100 µM
[16]
  TGI: > 100 µM
[17]
  TGI: > 100 µM
[18]
  TGI: > 100 µM
[20]
  TGI: > 100 µM
[21]
  TGI: > 100 µM
[22]
  TGI: > 100 µM
[23]
  TGI: > 100 µM
[24]
  TGI: > 100 µM
[25]
  TGI: > 100 µM
[26]
  TGI: > 100 µM
[27]
  TGI: > 100 µM
[29]
  TGI: > 100 µM
[30]
  TGI: > 100 µM
[54]
  TGI: > 100 µM
[55]
  TGI: 87.4 µM
[31]
  TGI: > 100 µM
[32]
  TGI: > 100 µM
[33]
  TGI: > 100 µM
[34]
  TGI: > 100 µM
[35]
  TGI: > 100 µM
[36]
  TGI: > 100 µM
[38]
  TGI: 73.3 µM
[39]
  TGI: > 100 µM
[40]
  TGI: > 100 µM
[42]
  TGI: > 100 µM
[43]
  TGI: > 100 µM
[44]
  TGI: > 100 µM
[45]
  TGI: > 100 µM
[46]
  TGI: > 100 µM
[56]
  TGI: > 100 µM
[47]
  TGI: 93.3 µM
[48]
  TGI: > 100 µM
[49]
  TGI: > 100 µM
[50]
  TGI: > 100 µM
[51]
  TGI: > 100 µM
[52]
  TGI: > 100 µM
[57]
  TGI: > 100 µM

## CCC1(CC)C(=O)OC(=O)C1(CC)CC
[1]
  TGI: > 100 µM
[2]
  TGI: > 100 µM
[3]
  TGI: > 100 µM
[4]
  TGI: > 100 µM
[5]
  TGI: > 100 µM
[6]
  TGI: > 100 µM
[7]
  TGI: > 100 µM
[8]
  TGI: > 100 µM
[9]
  TGI: > 100 µM
[10]
  TGI: > 100 µM
[11]
  TGI: > 100 µM
[12]
  TGI: > 100 µM
[13]
  TGI: > 100 µM
[14]
  TGI: > 100 µM
[15]
  TGI: > 100 µM
[58]
  TGI: > 100 µM
[17]
  TGI: > 100 µM
[18]
  TGI: > 100 µM
[19]
  TGI: > 100 µM
[20]
  TGI: > 100 µM
[21]
  TGI: > 100 µM
[22]
  TGI: > 100 µM
[25]
  TGI: > 100 µM
[26]
  TGI: > 100 µM
[27]
  TGI: > 100 µM
[28]
  TGI: > 100 µM
[30]
  TGI: > 100 µM
[54]
  TGI: > 100 µM
[55]
  TGI: > 100 µM
[31]
  TGI: > 100 µM
[32]
  TGI: > 100 µM
[33]
  TGI: > 100 µM
[35]
  TGI: > 100 µM
[36]
  TGI: > 100 µM
[37]
  TGI: > 100 µM
[39]
  TGI: > 100 µM
[40]
  TGI: > 100 µM
[41]
  TGI: > 100 µM
[42]
  TGI: > 100 µM
[43]
  TGI: > 100 µM
[44]
  TGI: > 100 µM
[45]
  TGI: > 100 µM
[56]
  TGI: > 100 µM
[47]
  TGI: > 100 µM
[59]
  TGI: > 100 µM
[48]
  TGI: > 100 µM
[49]
  TGI: > 100 µM
[50]
  TGI: > 100 µM
[51]
  TGI: > 100 µM
[53]
  TGI: > 100 µM
[57]
  TGI: > 100 µM

## COC(=O)Nc1nc2ccc(S(=O)(=O)NC(CC(C)C)C(=O)OC)cc2[nH]1 (stereo not drawn)
[1]
  TGI: > 100 µM
[2]
  TGI: 28 µM
[3]
  TGI: > 100 µM
[4]
  TGI: > 100 µM
[5]
  TGI: > 100 µM
[6]
  TGI: > 100 µM
[7]
  TGI: > 100 µM
[8]
  TGI: 59.3 µM
[10]
  TGI: 89.8 µM
[12]
  TGI: 19.1 µM
[13]
  TGI: > 100 µM
[14]
  TGI: 8.04 µM
[15]
  TGI: > 100 µM
[16]
  TGI: > 100 µM
[58]
  TGI: 3.47 µM
[17]
  TGI: 8.06 µM
[18]
  TGI: 6.45 µM
[19]
  TGI: > 100 µM
[20]
  TGI: 12.6 µM
[21]
  TGI: > 100 µM
[23]
  TGI: 41.2 µM
[24]
  TGI: > 100 µM
[25]
  TGI: > 100 µM
[27]
  TGI: 2.18 µM
[28]
  TGI: 29.2 µM
[29]
  TGI: > 100 µM
[30]
  TGI: > 100 µM
[54]
  TGI: > 100 µM
[55]
  TGI: 0.888 µM
[31]
  TGI: 59.6 µM
[32]
  TGI: 2.7 µM
[33]
  TGI: > 100 µM
[34]
  TGI: 95.1 µM
[35]
  TGI: > 100 µM
[36]
  TGI: > 100 µM
[37]
  TGI: > 100 µM
[38]
  TGI: 15.9 µM
[39]
  TGI: > 100 µM
[40]
  TGI: 5.44 µM
[41]
  TGI: 38.3 µM
[42]
  TGI: > 100 µM
[43]
  TGI: > 100 µM
[44]
  TGI: 4.21 µM
[45]
  TGI: > 100 µM
[46]
  TGI: > 100 µM
[56]
  TGI: 45 µM
[47]
  TGI: 8.16 µM
[48]
  TGI: > 100 µM
[49]
  TGI: > 100 µM
[50]
  TGI: 31.9 µM
[51]
  TGI: > 100 µM
[53]
  TGI: > 100 µM
[57]
  TGI: > 100 µM
